Assay results taken from ChEMBL document CHEMBL5046241, “The novel therapeutic strategy of vilazodone-donepezil chimeras as potent triple-target ligands for the potential treatment of Alzheimer's disease with comorbid depression” (Eur J Med Chem, 2022).

How the values were obtained:
[1] = biological target: T1, 5-hydroxytryptamine receptor 1A (Homo sapiens, UniProt P08908)
T1 sequence (P08908 whole entry): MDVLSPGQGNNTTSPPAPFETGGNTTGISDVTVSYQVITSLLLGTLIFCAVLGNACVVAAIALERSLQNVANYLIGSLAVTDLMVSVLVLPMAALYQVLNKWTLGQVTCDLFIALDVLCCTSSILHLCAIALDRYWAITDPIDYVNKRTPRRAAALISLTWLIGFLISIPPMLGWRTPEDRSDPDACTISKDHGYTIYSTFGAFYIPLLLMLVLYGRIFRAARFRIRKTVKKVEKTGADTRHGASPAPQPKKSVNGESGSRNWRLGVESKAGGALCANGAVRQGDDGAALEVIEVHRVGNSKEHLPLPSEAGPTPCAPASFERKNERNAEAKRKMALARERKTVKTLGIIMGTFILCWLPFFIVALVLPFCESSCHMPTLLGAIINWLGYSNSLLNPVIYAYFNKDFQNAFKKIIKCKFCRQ
Description: Agonist activity at human 5-HT1A receptor expressed in HEK293 cells incubated for 60 mins by Eu-cAMP tracer based LANCE ultra cAMP assay

Acetylcholinesterase = biological target: T2, Acetylcholinesterase (Mus musculus, UniProt P21836); test: biochemical
T2 sequence (P21836 whole entry): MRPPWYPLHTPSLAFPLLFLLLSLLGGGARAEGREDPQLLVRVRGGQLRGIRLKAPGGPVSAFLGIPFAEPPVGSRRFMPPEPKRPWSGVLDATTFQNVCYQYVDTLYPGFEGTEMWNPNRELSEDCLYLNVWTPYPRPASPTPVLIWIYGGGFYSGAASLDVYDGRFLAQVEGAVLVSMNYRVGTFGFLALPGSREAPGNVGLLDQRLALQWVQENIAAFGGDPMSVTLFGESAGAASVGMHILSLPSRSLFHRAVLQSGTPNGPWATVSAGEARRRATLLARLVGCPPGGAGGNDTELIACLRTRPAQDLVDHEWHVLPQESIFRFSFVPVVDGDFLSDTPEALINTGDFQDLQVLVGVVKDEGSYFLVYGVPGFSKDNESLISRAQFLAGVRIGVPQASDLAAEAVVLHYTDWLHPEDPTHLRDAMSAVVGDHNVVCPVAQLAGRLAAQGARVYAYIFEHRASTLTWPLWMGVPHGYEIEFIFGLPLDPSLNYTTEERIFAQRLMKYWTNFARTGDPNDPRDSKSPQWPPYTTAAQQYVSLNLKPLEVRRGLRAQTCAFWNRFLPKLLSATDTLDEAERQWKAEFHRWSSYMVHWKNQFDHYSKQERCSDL
Description: Inhibition of AChE in mouse cortical homogenate using acetylthiocholine iodide as substrate incubated for 20 mins by Ellman's method

[2] = biological target: Sodium-dependent serotonin transporter (Homo sapiens, UniProt P31645); assay type: cell-based, HEK293
Sequence of Sodium-dependent serotonin transporter (P31645 whole entry): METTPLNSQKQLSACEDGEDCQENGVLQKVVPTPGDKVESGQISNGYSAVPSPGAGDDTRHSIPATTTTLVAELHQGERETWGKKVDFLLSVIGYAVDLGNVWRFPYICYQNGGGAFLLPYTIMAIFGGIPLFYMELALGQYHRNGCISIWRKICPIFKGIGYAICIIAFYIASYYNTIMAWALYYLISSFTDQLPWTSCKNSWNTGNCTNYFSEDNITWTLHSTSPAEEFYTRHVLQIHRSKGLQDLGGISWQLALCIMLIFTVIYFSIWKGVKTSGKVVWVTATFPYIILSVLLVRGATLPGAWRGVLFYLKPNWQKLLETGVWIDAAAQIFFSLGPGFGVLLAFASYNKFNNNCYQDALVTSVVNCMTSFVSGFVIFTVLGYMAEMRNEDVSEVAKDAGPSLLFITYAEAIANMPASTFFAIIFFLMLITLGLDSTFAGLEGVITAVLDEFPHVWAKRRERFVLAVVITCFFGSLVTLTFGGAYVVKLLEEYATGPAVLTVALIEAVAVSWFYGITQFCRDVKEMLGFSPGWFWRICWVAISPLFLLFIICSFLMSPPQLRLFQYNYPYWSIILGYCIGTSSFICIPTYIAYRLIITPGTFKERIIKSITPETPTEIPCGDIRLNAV

Cholinesterase = Cholinesterase (Mus musculus, UniProt Q03311)
Sequence of Cholinesterase (Q03311 whole entry): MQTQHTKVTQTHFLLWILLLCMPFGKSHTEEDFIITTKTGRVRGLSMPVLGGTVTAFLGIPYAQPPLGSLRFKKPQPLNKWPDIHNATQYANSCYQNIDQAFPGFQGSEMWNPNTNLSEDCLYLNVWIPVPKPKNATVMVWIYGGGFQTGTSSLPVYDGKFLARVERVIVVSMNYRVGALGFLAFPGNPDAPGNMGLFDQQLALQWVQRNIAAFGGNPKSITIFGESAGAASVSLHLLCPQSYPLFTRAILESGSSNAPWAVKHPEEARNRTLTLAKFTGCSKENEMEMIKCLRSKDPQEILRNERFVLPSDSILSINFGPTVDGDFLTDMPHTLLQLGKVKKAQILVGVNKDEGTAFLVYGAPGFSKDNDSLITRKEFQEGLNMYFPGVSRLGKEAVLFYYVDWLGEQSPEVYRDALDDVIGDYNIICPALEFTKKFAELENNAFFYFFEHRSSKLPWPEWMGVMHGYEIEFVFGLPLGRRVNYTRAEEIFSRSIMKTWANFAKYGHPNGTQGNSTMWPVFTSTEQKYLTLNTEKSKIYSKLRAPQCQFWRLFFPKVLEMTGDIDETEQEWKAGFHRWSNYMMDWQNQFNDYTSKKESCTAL
Description: Inhibition of BuChE in mouse serum using butyrylthiocholine iodide as substrate incubated for 20 mins by Ellman's method

in vitro = conditions: PAMPA
Description: Permeability of compound by PAMPA-BBB assay

For `C#CCN1CCC(CCC(=O)c2ccc(N3CCN(CCCCc4c[nH]c5ccc(C#N)cc45)CC3)cc2)CC1`, the EC50 [1] was 0.029 µM and the IC50 (Acetylcholinesterase) was 1.14 µM.
With `N#Cc1ccc2[nH]cc(CCN3CCN(c4ccc(C(=O)CCC5CCN(Cc6ccccc6)CC5)cc4)CC3)c2c1` the IC50 [2] was 0.0323 µM, the IC50 (Cholinesterase) was 3 µM and the IC50 (Acetylcholinesterase) was 0.00504 µM.
Compound `N#Cc1ccc2[nH]cc(CCCCN3CCN(c4ccc(C(=O)CCC5CCN(CC6CCCCC6)CC5)cc4)CC3)c2c1` has an IC50 (Cholinesterase) of 2.83 µM and an IC50 (Acetylcholinesterase) of 0.0765 µM.
In the case of `N#Cc1ccc2[nH]cc(CCCCN3CCN(c4ccc(C(=O)CCC5CCN(CC6CC6)CC5)cc4)CC3)c2c1`, the IC50 (Cholinesterase) is reported as 0.743 µM, the EC50 [1] is reported as 0.0091 µM and the IC50 (Acetylcholinesterase) is reported as 0.366 µM.
Compound `N#Cc1ccc2[nH]cc(CCCN3CCN(c4ccc(C(=O)CCC5CCN(Cc6ccsc6)CC5)cc4)CC3)c2c1` has an IC50 [2] of 0.0411 µM, an IC50 (Cholinesterase) of 1.2 µM and an IC50 (Acetylcholinesterase) of 0.00185 µM.
Compound `N#Cc1ccc2[nH]cc(CCCCN3CCN(c4ccc5c(c4)C(=O)C(CC4CCN(Cc6ccccc6)CC4)C5)CC3)c2c1` (stereo not drawn) has an IC50 (Cholinesterase) of 0.325 µM and an IC50 (Acetylcholinesterase) of 0.0374 µM.
In the case of `Cc1ccc2[nH]cc(CCCCN3CCN(c4ccc(C(=O)CCC5CCN(Cc6ccccc6)CC5)cc4)CC3)c2c1`, the IC50 [2] is reported as > 1 µM, the IC50 (Cholinesterase) is reported as 1.2 µM and the EC50 [1] is reported as 0.279 µM. It also gave a Papp (in vitro) of 25 nm/s and an IC50 (Acetylcholinesterase) of 0.00228 µM.
Work on `N#Cc1ccc2[nH]cc(CCCCN3CCN(c4cccc(C(=O)CCC5CCN(Cc6ccccc6)CC5)c4)CC3)c2c1` yielded an IC50 (Cholinesterase) of 1 µM and an IC50 (Acetylcholinesterase) of 0.0379 µM.
With `O=C(CCC1CCN(Cc2ccccc2)CC1)c1ccc(N2CCN(CCCCc3c[nH]c4cc(Cl)c(Cl)cc34)CC2)cc1` the IC50 (Cholinesterase) was 5.81 µM, the EC50 [1] was > 1 µM and the IC50 (Acetylcholinesterase) was 0.0112 µM.
Work on `N#Cc1ccc2[nH]cc(CCCCN3CCN(c4ccc5c(c4)C/C(=C\C4CCN(Cc6ccccc6)CC4)C5=O)CC3)c2c1` yielded an IC50 (Cholinesterase) of 4.95 µM and an IC50 (Acetylcholinesterase) of 0.0307 µM.
`N#Cc1ccc2[nH]cc(CCN3CCN(c4ccc(C(=O)CCC5CCN(Cc6ccoc6)CC5)cc4)CC3)c2c1` showed an IC50 (Cholinesterase) of 2.84 µM and an IC50 (Acetylcholinesterase) of 0.0123 µM.
`N#Cc1ccc2[nH]cc(CCCN3CCN(c4ccc(C(=O)CCC5CCN(Cc6cc[nH]c6)CC5)cc4)CC3)c2c1` gave an IC50 [2] of 0.0149 µM, an IC50 (Cholinesterase) of 1.13 µM and an IC50 (Acetylcholinesterase) of 0.00327 µM.
In the case of `N#Cc1ccc2c(CCCCN3CCN(c4ccc(C(=O)CCC5CCN(Cc6ccccc6)CC5)cc4)CC3)c[nH]c2c1`, the IC50 (Cholinesterase) is reported as 2.64 µM, the EC50 [1] is reported as > 1 µM and the IC50 (Acetylcholinesterase) is reported as 0.00371 µM.
For `Cc1cccc(CN2CCC(CCC(=O)c3ccc(N4CCN(CCCCc5c[nH]c6ccc(C#N)cc56)CC4)cc3)CC2)c1`, the IC50 (Cholinesterase) was 13.4 µM and the IC50 (Acetylcholinesterase) was 0.0183 µM.
`N#Cc1ccc2[nH]cc(CCCCN3CCN(c4ccc(C(=O)CCC5CCN(Cc6cccc(Cl)c6)CC5)cc4)CC3)c2c1` showed an IC50 (Cholinesterase) of 15.3 µM, an EC50 [1] of 0.203 µM and an IC50 (Acetylcholinesterase) of 0.027 µM.
`O=C(CCC1CCN(Cc2ccccc2)CC1)c1ccc(N2CCN(CCCCc3c[nH]c4ccc(F)cc34)CC2)cc1` gave an IC50 [2] of 0.114 µM, an IC50 (Cholinesterase) of 1.47 µM and an IC50 (Acetylcholinesterase) of 0.00243 µM.
Compound `COc1cccc(CN2CCC(CCC(=O)c3ccc(N4CCN(CCCCc5c[nH]c6ccc(C#N)cc56)CC4)cc3)CC2)c1` has an IC50 (Acetylcholinesterase) of 0.644 µM.
Work on `N#Cc1ccc2[nH]cc(CCCCN3CCN(c4cccc5c4C(=O)C(CC4CCN(Cc6ccccc6)CC4)C5)CC3)c2c1` (stereo not drawn) yielded an IC50 (Cholinesterase) of 0.183 µM, an EC50 [1] of 0.036 µM and an IC50 (Acetylcholinesterase) of 0.709 µM.
`N#Cc1ccc2[nH]cc(CCCN3CCN(c4ccc(C(=O)CCC5CCN(Cc6cccnc6)CC5)cc4)CC3)c2c1` gave an IC50 (Cholinesterase) of 2.01 µM and an IC50 (Acetylcholinesterase) of 0.00641 µM.
For `N#Cc1ccc2[nH]cc(CCN3CCN(c4ccc(C(=O)CCC5CCN(Cc6ccsc6)CC5)cc4)CC3)c2c1`, the IC50 [2] was 0.0335 µM, the IC50 (Cholinesterase) was 1.86 µM and the EC50 [1] was > 1 µM. The Papp (in vitro) was 47.7 nm/s and the IC50 (Acetylcholinesterase) was 0.00256 µM.
For `O=C(CCC1CCN(Cc2ccccc2)CC1)c1ccc(N2CCN(CCCCc3c[nH]c4ccccc34)CC2)cc1`, the IC50 [2] was 0.285 µM, the IC50 (Cholinesterase) was 0.986 µM and the IC50 (Acetylcholinesterase) was 0.00151 µM.
Compound `N#Cc1ccc2[nH]cc(CCCCN3CCN(c4ccc5c(c4)CC(CC4CCN(Cc6ccccc6)CC4)C5=O)CC3)c2c1` (stereo not drawn) has an IC50 [2] of 0.036 µM, an IC50 (Cholinesterase) of 1.67 µM and an IC50 (Acetylcholinesterase) of 0.00584 µM.
For `N#Cc1ccc2[nH]cc(CN3CCN(c4ccc(C(=O)CCC5CCN(Cc6ccoc6)CC5)cc4)CC3)c2c1`, the IC50 (Cholinesterase) was 1.4 µM, the EC50 [1] was > 1 µM and the Papp (in vitro) was 55.6 nm/s. The IC50 (Acetylcholinesterase) was 0.0106 µM.
Work on `N#Cc1ccc2[nH]cc(CCCCN3CCN(c4ccc(C(=O)CCC5CCN(Cc6cccc(C(F)(F)F)c6)CC5)cc4)CC3)c2c1` yielded an EC50 [1] of 0.323 µM and an IC50 (Acetylcholinesterase) of 0.294 µM.
With `COC(=O)c1ccc2[nH]cc(CCCCN3CCN(c4ccc(C(=O)CCC5CCN(Cc6ccccc6)CC5)cc4)CC3)c2c1` the IC50 [2] was > 1 µM, the IC50 (Cholinesterase) was 0.336 µM and the IC50 (Acetylcholinesterase) was 0.00328 µM.
In the case of `N#Cc1ccc2[nH]cc(CCCCN3CCN(c4ccc(C(=O)CCC5CCN(Cc6cccc(Br)c6)CC5)cc4)CC3)c2c1`, the IC50 (Acetylcholinesterase) is reported as 0.0915 µM.
Compound `N#Cc1ccc2[nH]cc(CCCCN3CCN(c4ccc(C(=O)CCC5CCN(CC6CCC6)CC5)cc4)CC3)c2c1` has an IC50 (Cholinesterase) of 1.32 µM and an IC50 (Acetylcholinesterase) of 0.249 µM.
In the case of `COc1ccc2[nH]cc(CCCCN3CCN(c4ccc(C(=O)CCC5CCN(Cc6ccccc6)CC5)cc4)CC3)c2c1`, the IC50 [2] is reported as 0.0765 µM, the IC50 (Cholinesterase) is reported as 0.687 µM and the IC50 (Acetylcholinesterase) is reported as 0.00242 µM.
For `CCN1CCC(CCC(=O)c2ccc(N3CCN(CCCCc4c[nH]c5ccc(C#N)cc45)CC3)cc2)CC1`, the IC50 (Cholinesterase) was 2.38 µM, the EC50 [1] was 0.009 µM and the IC50 (Acetylcholinesterase) was 0.393 µM.
For `O=C(CCC1CCN(Cc2ccccc2)CC1)c1ccc(N2CCN(CCCCc3c[nH]c4ccc(Cl)cc34)CC2)cc1`, the IC50 [2] was 0.159 µM, the IC50 (Cholinesterase) was 2.72 µM and the IC50 (Acetylcholinesterase) was 0.00352 µM.
Compound `N#Cc1ccc2[nH]cc(CCCCN3CCN(c4ccc(C(=O)CCC5CCN(Cc6ccc(F)cc6)CC5)cc4)CC3)c2c1` has an IC50 (Cholinesterase) of 2.68 µM, an EC50 [1] of 0.162 µM and an IC50 (Acetylcholinesterase) of 0.0324 µM.
With `N#Cc1ccc2[nH]cc(CCCCN3CCN(c4ccc(C(=O)CCC5CCN(Cc6ccccc6F)CC5)cc4)CC3)c2c1` the IC50 (Cholinesterase) was 2.51 µM and the IC50 (Acetylcholinesterase) was 0.012 µM.
Compound `N#Cc1ccc2[nH]cc(CCCCN3CCN(c4ccc(C(=O)CCC5CCN(Cc6cccc(F)c6)CC5)cc4)CC3)c2c1` has an IC50 (Cholinesterase) of 11.3 µM and an IC50 (Acetylcholinesterase) of 0.0109 µM.
Compound `N#Cc1ccc2[nH]cc(CCCCN3CCN(c4ccccc4C(=O)CCC4CCN(Cc5ccccc5)CC4)CC3)c2c1` has an IC50 (Cholinesterase) of 0.351 µM and an IC50 (Acetylcholinesterase) of 2.52 µM.
`O=C(CCC1CCN(Cc2ccccc2)CC1)c1ccc(N2CCN(CCCCc3c[nH]c4ccc(Br)cc34)CC2)cc1` gave an IC50 (Cholinesterase) of 3.84 µM and an IC50 (Acetylcholinesterase) of 0.00775 µM.
In the case of `N#Cc1ccc2[nH]cc(CCCN3CCN(c4ccc(C(=O)CCC5CCN(Cc6ccoc6)CC5)cc4)CC3)c2c1`, the IC50 (Cholinesterase) is reported as 1.34 µM, the EC50 [1] is reported as 0.029 µM and the Papp (in vitro) is reported as 51.7 nm/s. The IC50 (Acetylcholinesterase) was 0.00961 µM.
Compound `C=CCN1CCC(CCC(=O)c2ccc(N3CCN(CCCCc4c[nH]c5ccc(C#N)cc45)CC3)cc2)CC1` has an IC50 (Cholinesterase) of 1.66 µM, an EC50 [1] of 0.0086 µM and an IC50 (Acetylcholinesterase) of 0.267 µM.
With `N#Cc1ccc2[nH]cc(CCCCN3CCN(c4ccc(C(=O)CCC5CCN(Cc6ccc7ccccc7c6)CC5)cc4)CC3)c2c1` the EC50 [1] was > 1 µM.
With `N#Cc1ccc2[nH]cc(CCCCN3CCN(c4ccc(C(=O)CCC5CCN(CC6CCCC6)CC5)cc4)CC3)c2c1` the IC50 (Cholinesterase) was 1.76 µM, the EC50 [1] was 0.0498 µM and the IC50 (Acetylcholinesterase) was 0.0404 µM.
In the case of `N#Cc1ccc2[nH]cc(CN3CCN(c4ccc(C(=O)CCC5CCN(Cc6cccnc6)CC5)cc4)CC3)c2c1`, the IC50 (Cholinesterase) is reported as 5.85 µM, the EC50 [1] is reported as > 1 µM and the Papp (in vitro) is reported as 28.6 nm/s. It also gave an IC50 (Acetylcholinesterase) of 0.00997 µM.
Work on `CCCCN1CCC(CCC(=O)c2ccc(N3CCN(CCCCc4c[nH]c5ccc(C#N)cc45)CC3)cc2)CC1` yielded an IC50 (Cholinesterase) of 1.91 µM and an IC50 (Acetylcholinesterase) of 0.123 µM.
With `N#Cc1ccc2[nH]cc(CCN3CCN(c4ccc(C(=O)CCC5CCN(Cc6cccnc6)CC5)cc4)CC3)c2c1` the IC50 (Cholinesterase) was 6.75 µM, the EC50 [1] was 0.547 µM and the Papp (in vitro) was 25.8 nm/s. The IC50 (Acetylcholinesterase) was 0.0077 µM.
